Source: US7125883B1, “Integrin receptor ligands” (Abbott GmbH & Co. KG, priority 1999, dated 2006)

target: integrin αvβ3 (Homo sapiens, UniProt P05106+P06756); assay: Integrin αvβ3 assay (competition with vitronectin for binding to solid-phase integrin αvβ3); settings: competition between human vitronectin and test substance for binding to integrin αvβ3 bound to a solid phase; only a ranking in words is given

IC50 values (concentration of the ligand at which 50% of the ligand is displaced) | SMILES
best result | Cc1cn(CC(CC(=O)O)NC(=O)OCc2ccccc2)c(=O)nc1NCc1ccc(CNc2ccccn2)cc1.O=C(O)C(F)(F)F (stereo not shown) [Example I-54]
best result | O=C(O)C(F)(F)F.O=C(O)CC(Cn1cc(C2CCOCC2)c(NCCC(=O)Nc2ncc[nH]2)nc1=O)NC(=O)OCc1ccccc1 (stereo not shown) [Example I-61, 2-[(3-{[1-(2-{[(Benzyloxy)carbonyl]amino}-3-carboxy-propyl)-2-oxo-5-tetrahydro-2H-pyran-4-yl-1,2-dihydropyrimidin-4-yl]amino}propanoyl)amino]-1H-imidazol-1-ium trifluoroacetate]
best result | O=C(O)C(F)(F)F.O=C(O)CC(Cn1cc(-c2ccccc2)c(NCCC(=O)Nc2ncc[nH]2)nc1=O)NC(=O)OCc1ccccc1 (stereo not shown) [Example I-63, 2-[(3-{[1-(2-{[(Benzyloxy)carbonyl]amino}-3-carboxy-propyl)-2-oxo-5-phenyl-1,2-dihydropyrimidin-4-yl]amino}-propanoyl)amino]-1H-imidazol-1-ium trifluoroacetate]
best result | CCCc1cn(C[C@H](NC(=O)OCc2ccccc2)C(=O)O)c(=O)nc1N1CCC(CNc2ccccn2)CC1.O=C(O)C(F)(F)F [Example I-64, 2-[({1-[1-((2S)-{[(Benzyloxy)carbonyl]amino}-2-carboxy-ethyl)-2-oxo-5-propyl-1,2-dihydropyrimidin-4-yl]-piperidin-4-yl}methyl)amino]pyridinium trifluoroacetate]
